Test results taken from PMC8291587, “Guanidine Derivatives: How Simple Structural Modification of Histamine H3R Antagonists Has Led to the Discovery of Potent Muscarinic M2R/M4R Antagonists” (ACS Chemical Neuroscience, 2021).
Read-outs that look alike come from different tables or passages of the source.

Tests used:
hM2R = target: T1, hM2R (Homo sapiens, UniProt P08172); experiment: hM2R radioligand binding ([3H]NMS, CHO cell membranes)
T1 construct: host or cells: CHO cells, stably transfected; crude membranes
T1 sequence (P08172 1-466): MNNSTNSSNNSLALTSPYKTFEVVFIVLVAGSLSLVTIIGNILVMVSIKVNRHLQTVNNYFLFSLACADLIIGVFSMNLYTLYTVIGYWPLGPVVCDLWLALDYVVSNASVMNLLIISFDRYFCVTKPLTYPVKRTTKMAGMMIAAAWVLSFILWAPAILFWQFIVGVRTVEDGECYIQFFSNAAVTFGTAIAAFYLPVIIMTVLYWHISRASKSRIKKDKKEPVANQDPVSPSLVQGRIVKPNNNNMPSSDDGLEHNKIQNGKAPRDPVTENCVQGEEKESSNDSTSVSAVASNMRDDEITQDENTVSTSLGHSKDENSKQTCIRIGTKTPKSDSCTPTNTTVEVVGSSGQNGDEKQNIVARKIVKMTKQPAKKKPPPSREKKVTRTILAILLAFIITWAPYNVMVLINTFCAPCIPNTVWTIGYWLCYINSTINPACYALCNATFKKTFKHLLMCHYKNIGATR
Procedure: To clearly explain the obtained outcome, we engaged the radioligand binding experiment. The hM1–hM5 radioligand binding experiments were performed in the membrane fractions of Chinese hamster ovary cells (CHO) stably expressing human variants of muscarinic receptors. N-[^3H]Methylscopolamine was used as the radiolabeled ligand.[39] Three compounds were selected from ex vivo screening on guinea pig ileum. […] This compound is also not completely selective for the remaining muscarinic receptor subtypes with −log Ki values over 6. […] It is also a potent muscarinic M1R antagonist, and the M1R/M2R selectivity ratio is <10. It is worth noting that such nonspecific anticholinergics are often associated with neuropsychiatric and cognitive disturbances and that nonselective muscarinic M1R/M2R antagonists, such as scopolamine, can produce cognitive deficits. Further structural modifications of ADS10227 should be used to increase selectivity toward the M2R, as these may present fewer potential side effects associated with the activation of the phospholipase C signaling pathway.
The culture was derived from CHO cells stably transfected with the genes of human variants of muscarinic receptors. These were purchased from Missouri S&T cDNA Resource Center (Rolla, MO, USA). Cell cultures and crude membranes were prepared as described previously.[45] The cells were grown to confluence in 75 cm^2 flasks in Dulbecco’s modified Eagle’s medium (DMEM) supplemented with 10% fetal bovine serum, and 2 million cells were subcultured to 100 mm Petri dishes. The medium was supplemented with 5 mM butyrate for the last 24 h of cultivation to increase receptor expression. Cells were detached by mild trypsinization on day 5 after subculture. Detached cells were washed twice in 50 mL of phosphate-buffered saline and 3 min centrifugation at 250g. […]
All radioligand binding experiments were optimized and carried out according to general guidelines.[39] […] N-Methylscopolamine binding was measured directly in saturation experiments using six concentrations (30–1000 pM) of [^3H]NMS during incubation for 1 h (M2R), 3 h (M1R, M3R, and M4R), or 5 h (M5R). For calculations of the equilibrium dissociation constant (KD), concentrations of free [^3H]NMS were calculated by subtraction of bound radioactivity from total radioactivity in the sample and fitting eq 1 (Experimental Data analysis section). The binding of the tested ligands was determined in competition experiments with 100 pM [^3H]NMS. […] Nonspecific binding was determined in the presence of 1 μM unlabeled atropine. […]

H1R = target: T2, H1R (Cavia porcellus, UniProt P31389); experiment: Ex vivo screening of histamine H1R antagonists on guinea pig ileum, variant without atropine; conditions: isolated guinea pig ileum, histamine as agonist
T2 construct: from tissue; host or cells: isolated distal ileum of male guinea pigs
T2 sequence (P31389 whole entry): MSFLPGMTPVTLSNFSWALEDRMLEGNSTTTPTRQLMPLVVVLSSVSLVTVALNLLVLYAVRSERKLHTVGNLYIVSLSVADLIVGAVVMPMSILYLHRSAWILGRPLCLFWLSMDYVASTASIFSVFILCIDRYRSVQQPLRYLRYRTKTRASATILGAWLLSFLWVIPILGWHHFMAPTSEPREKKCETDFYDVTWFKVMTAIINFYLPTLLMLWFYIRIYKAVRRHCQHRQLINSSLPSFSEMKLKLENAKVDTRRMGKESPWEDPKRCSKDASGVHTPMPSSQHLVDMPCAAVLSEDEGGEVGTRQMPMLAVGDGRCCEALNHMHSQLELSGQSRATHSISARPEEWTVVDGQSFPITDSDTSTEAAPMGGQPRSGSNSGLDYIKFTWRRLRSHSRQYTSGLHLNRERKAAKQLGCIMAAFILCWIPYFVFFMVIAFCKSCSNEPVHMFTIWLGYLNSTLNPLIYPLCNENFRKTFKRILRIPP
Procedure: The second histamine receptor located in the guinea pig ileum is H1R. […] The H1R antagonistic effect was measured on isolated guinea pig ileum stimulated to contract by histamine.[37] To assess and exclude the influence of the ADS compounds on muscarinic receptors, two test variations were used: one with the addition of 0.05 μM atropine and one without.
Male guinea pigs, weighing 300–400 g, were euthanized by a blow to the neck. A 20–30 cm length of the distal ileum, apart from the terminal 5 cm, was rapidly removed and placed in phosphate buffer at room temperature (pH 7.4) containing (mM) NaCl (136.9), KCl (2.6), KH2PO4 (1.47), Na2HPO4 (9.58), and indomethacin (1 × 10^–6 mol/L). The intraluminal content was rinsed, and the isolated intestine was cut into 1.5–2 cm segments. The preparations were mounted isotonically in a 20 mL organ bath filled with Krebs buffer: composition (mM) NaCl (118), KCl (5.6), MgSO4 (1.18), CaCl2 (2.5), NaH2PO4·H2O (1.28), NaHCO3 (25), glucose (5.55), and indomethacin (3 × 10^–7 mol/L). […] The solution was continuously bubbled with a 95% O2:5% CO2 mixture and maintained at 37 °C under a constant load of 0.5 g (Hugo Sachs Hebel–Messvorsatz (Tl-2)/HF-modem; Hugo Sachs Elektronik, Hugstetten, Germany) connected to a pen recorder (Kipp & Zonen BD41, Delft, Holland). During an equilibration period of 40 min, Krebs buffer was changed every 10 min. The first cumulative concentration–response curve was determined for histamine (10 nM to 10 mM) at increasing concentrations spaced by 3- or 3.3-fold. The second to the fourth (or fifth) curves were measured in the presence of an increasing concentrations of antagonist (incubation time 10 min). The pA2 values were calculated according to Arunlakshana and Schild.[37] Statistical analysis was carried out with the Students’ t test. In all tests, a p < 0.05 was considered statistically significant.

[1] = read-out: H1R pA2 gpi ± sem (converted)

Ki (hM2R; [3H]NMS, CHO membranes, read-out: affinity to hM2R (Ki))	SMILES	Kb (H1R; [1])	Ki (hM2R; [3H]NMS, CHO membranes, read-out: hM2R -log(Ki) ± sem (converted))	M1R/M2R selectivity ratio (hM2R; from hM1R and hM2R binding)	Ki (hM2R)	Kb (H1R; H1R pA2 gpi ± sem)
52 nM	[H]/N=C(/N)N(CCCCN1CCN(CC2CCC(COc3ccccc3)CC2)CC1)Cc1ccc(C(F)(F)F)cc1 (stereo not shown) [ADS10239]	110 nM	–	–	–	–
–	N=C(N)N(CCCCN1CCN(C[C@H]2CC[C@@H](COc3ccccc3)CC2)CC1)Cc1ccccc1 [ADS10227, 1-{4-{4-{[4-(phenoxymethyl)cyclohexyl]methyl}piperazin-1-yl}but-1-yl}-1-(benzyl)guanidine]	70.8 nM	2.82 nM	< 10	–	–
–	N=C(N)N(CCCCN1CCN(CCCCCCCOc2ccccc2)CC1)Cc1ccccc1 [ADS1017]	–	–	–	37.2 nM	331 nM
